# Test results from patent US9556201B2, “Bicyclic pyridines and analogs as sirtuin modulators” (GLAXOSMITHKLINE LLC, priority 2009, dated 2017).
# Assays:
# [1] = system: TNF; assay: TNF IC50 (column of Table 1; method not shown); assay type: cell-based
# [2] = target: T1, SIRT1 (Homo sapiens, UniProt Q96EB6); assay: Mass spectrometry based assay to identify modulators of SIRT1 activity (deacetylation of p53-based acetylated peptide substrate); assay type: biochemical; details: for Emax: 25 min, read-out: % FOLD ACT. (percent maximum fold activation); for Emax / EC1.5: SIRT1 activation
# T1 sequence (Q96EB6 1-747): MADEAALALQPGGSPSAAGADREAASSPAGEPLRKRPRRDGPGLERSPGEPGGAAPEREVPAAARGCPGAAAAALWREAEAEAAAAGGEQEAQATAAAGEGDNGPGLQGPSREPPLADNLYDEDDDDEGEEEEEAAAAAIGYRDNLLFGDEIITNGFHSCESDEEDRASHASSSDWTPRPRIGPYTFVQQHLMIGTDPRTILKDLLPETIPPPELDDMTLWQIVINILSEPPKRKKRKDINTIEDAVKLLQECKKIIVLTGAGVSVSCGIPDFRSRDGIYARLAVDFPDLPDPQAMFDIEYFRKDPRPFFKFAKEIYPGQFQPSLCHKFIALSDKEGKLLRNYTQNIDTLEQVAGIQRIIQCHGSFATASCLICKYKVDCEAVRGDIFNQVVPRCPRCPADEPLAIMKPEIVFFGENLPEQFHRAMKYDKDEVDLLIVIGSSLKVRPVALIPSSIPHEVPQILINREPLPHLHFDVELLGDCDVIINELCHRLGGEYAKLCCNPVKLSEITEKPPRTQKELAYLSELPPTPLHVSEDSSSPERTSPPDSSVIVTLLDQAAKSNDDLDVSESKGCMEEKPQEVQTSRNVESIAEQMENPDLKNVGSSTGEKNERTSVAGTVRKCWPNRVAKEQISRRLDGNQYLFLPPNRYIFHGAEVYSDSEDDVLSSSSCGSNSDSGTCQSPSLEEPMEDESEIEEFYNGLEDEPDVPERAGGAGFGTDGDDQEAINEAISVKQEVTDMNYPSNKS
# Procedure, shortened: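 Deacetylation of a modified p53 acetyl-lysine peptide ([…], 5TMR-labelled, Nle for Met) by 10 nM N-His SIRT1 with 120 μM βNAD+, pH 8, 25 min, 25 °C. Substrate and product masses measured by MS after formic acid quench; nicotinamide defines maximal inhibition.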
# [3] = system: TNF; assay: TNF IC50 (column of Table 1; method not in the text shown); assay type: cell-based
SMILES,IC50 [1] [µM],Emax [2] [%],EC1.5 [2],IC50 [3] [µM],EC1.5 (concentration giving 1.5-fold activation) [2] [nM]
Cc1cc(NC(=O)N2CCOc3c(C)cc(-c4cccc(Cl)c4)nc32)cc(C)n1 [Compound 689],≥ 20,> 200,A (EC1.5<1.0 μM),–,–
Cc1cc(C)nc(NC(=O)N2CCOc3c(C)cc(-c4cccc(Cl)c4)nc32)c1 [Compound 690],≥ 20,> 200,A (EC1.5<1.0 μM),–,–
Cc1cc(-c2cccc(Cl)c2)nc2c1OCCN2C(=O)Nc1cccc(OCC(O)CO)n1 (stereo not drawn) [Compound 691],< 20,> 200,A (EC1.5<1.0 μM),–,–
Cc1cc(-c2cccc(Cl)c2)nc2c1OCCN2C(=O)Nc1ccnc(N2CCC2)c1 [Compound 692],≥ 20,> 200,A (EC1.5<1.0 μM),–,–
O=C(Nc1cccc(OC[C@H](O)CO)n1)N1CCOc2ccc(-c3ccc4c(c3)CCO4)nc21 [Compound 695],< 20,> 200,A (EC1.5<1.0 μM),–,–
"O=C(Nc1cncc(OCC(O)CO)n1)N1CCOc2ccc(-c3cccc(C(F)(F)F)c3)nc21 (stereo not drawn) [Compound 696, N-(6-(2,3-dihydroxypropoxy)pyrazin-2-yl)-6-(3-(trifluoromethyl)phenyl)-2H-pyrido[3,2-b][1,4]oxazine-4(3H)-carboxamide]",< 20,> 200,A (EC1.5<1.0 μM),–,–
O=C(Nc1ccnc(OCC(O)CO)n1)N1CCOc2ccc(-c3cccc(C(F)(F)F)c3)nc21 (stereo not drawn) [Compound 697],–,> 200,–,≥ 20,< 1000
CN(C)c1cccc(-c2ccc3c(n2)N(C(=O)Nc2cccc(OC[C@H](O)CO)n2)CCC3)c1 [Compound 699],–,> 200,–,< 20,< 1000
N#Cc1cccc(-c2ccc3c(n2)N(C(=O)Nc2cccc(OC[C@H](O)CO)n2)CCC3)c1 [Compound 700],–,> 200,–,< 20,< 1000
"Cc1cncc(NC(=O)N2CC(C)(C)Oc3ccc(-c4cccc(N5CC[C@@H](F)C5)c4)nc32)c1 [Compound 701, (R)-6-(3-(3-fluoropyrrolidin-1-yl)phenyl)-2,2-dimethyl-N-(5-methylpyridin-3-yl)-2H-pyrido[3,2-b][1,4]oxazine-4(3H)-carboxamide]",–,> 200,–,< 20,< 1000
Cc1csc(NC(=O)N2CC(C)(C)Oc3ccc(-c4cccc(N5CC[C@@H](F)C5)c4)nc32)n1 [Compound 707],–,> 200,–,≥ 20,< 1000
Cc1cncc(NC(=O)N2CCOc3cnc(-c4cccc(C(F)(F)F)c4)nc32)c1 [Compound 710],–,> 200,–,≥ 20,< 1000
Cc1cc(NC(=O)N2CCOc3cnc(-c4cccc(C(F)(F)F)c4)nc32)cc(C)n1 [Compound 711],–,> 200,–,≥ 20,< 1000
O=C(Nc1ccnc(N2CCC2)c1)N1CCOc2cnc(-c3cccc(C(F)(F)F)c3)nc21 [Compound 713],–,> 200,–,≥ 20,< 1000
O=C(Nc1cccc(OCC(O)CO)n1)N1CCOc2cnc(-c3cccc(C(F)(F)F)c3)nc21 (stereo not drawn) [Compound 717],–,≤ 200,–,≥ 20,< 1000
O=C(Nc1cccc(OC[C@@H](O)CO)n1)N1CCC(F)(F)c2ccc(-c3cccc(C(F)(F)F)c3)nc21 [Compound 745],–,> 200,–,< 20,< 1000
Cc1cc(NC(=O)N2CCCC(=O)c3ccc(-c4cccc(Cl)c4)nc32)ccn1 [Compound 750],–,> 200,–,≥ 20,< 1000
"CC1CCN(C(=O)Nc2ccncc2)c2nc(-c3cccc(C(F)(F)F)c3)ccc21 (stereo not drawn) [Compound 786, 4-methyl-N-(pyridin-4-yl)-7-(3-(trifluoromethyl)phenyl)-3,4-dihydro-1,8-naphthyridine-1(2H)-carboxamide]",–,> 200,–,< 20,< 1000

# Continued, values first:
IC50 [1] [µM],Emax [2] [%],EC1.5 [2],IC50 [3] [µM],EC1.5 (concentration giving 1.5-fold activation) [2] [nM],SMILES
–,> 200,–,≥ 20,< 1000,Cc1csc(NC(=O)N2CCC(C)c3ccc(-c4cccc(C(F)(F)F)c4)nc32)n1 (stereo not drawn) [Compound 787]
–,> 200,–,< 20,< 1000,CCN1CCCN(C(=O)Nc2cc(C)nc(C)c2)c2nc(-c3cccc(Cl)c3)ccc21 [Compound 793]
–,> 200,–,< 20,< 1000,CCN1CCCN(C(=O)Nc2nc(C)cs2)c2nc(-c3cccc(Cl)c3)ccc21 [Compound 794]
–,> 200,–,< 20,< 1000,CCN1CCCN(C(=O)Nc2ccnc(C)c2)c2nc(-c3cccc(Cl)c3)ccc21 [Compound 795]
–,≤ 200,–,< 20,< 1000,CC1CCN(C(=O)Nc2ccc(F)cn2)c2nc(-c3cccc(C(F)(F)F)c3)ccc21 (stereo not drawn) [Compound 800]
–,> 200,–,< 20,< 1000,CC1CCN(C(=O)Nc2cccc(OC[C@@H](O)CO)n2)c2nc(-c3cccc(C(F)(F)F)c3)ccc21 (stereo partly drawn) [Compound 801]
–,> 200,–,< 20,< 1000,CC1CCN(C(=O)Nc2ccncc2F)c2nc(-c3cccc(C(F)(F)F)c3)ccc21 (stereo not drawn) [Compound 804]
–,> 200,–,< 20,< 1000,CC1CCN(C(=O)Nc2ccncn2)c2nc(-c3cccc(C(F)(F)F)c3)ccc21 (stereo not drawn) [Compound 805]
–,> 200,–,< 20,< 1000,O=C(Nc1cncc(OCC(O)CO)n1)N1CCC(F)(F)c2ccc(-c3cccc(C(F)(F)F)c3)nc21 (stereo not drawn) [Compound 813]
–,> 200,–,≥ 20,< 1000,"O=C(Nc1cccc(N2CC3(CCO3)C2)n1)N1CCOc2ccc(-c3cccc(C(F)(F)F)c3)nc21 [Compound 823, N-(6-(1-oxa-6-azaspiro[3.3]heptan-6-yl)pyridin-2-yl)-6-(3-(trifluoromethyl)phenyl)-2H-pyrido[3,2-b][1,4]oxazine-4(3H)-carboxamide]"
–,> 200,–,< 20,< 1000,O=C(Nc1ccnc(OC[C@H](O)CO)n1)N1CCC(F)(F)c2ccc(-c3cccc(C(F)(F)F)c3)nc21 [Compound 825]
–,> 200,–,≥ 20,< 1000,COc1nccc(NC(=O)N2CCCC(=O)c3ccc(-c4cccc(C(F)(F)F)c4)nc32)n1 [Compound 830]
–,> 200,–,≥ 20,< 1000,CC1(C)CCN(C(=O)Nc2ccncn2)c2nc(-c3cccc(C(F)(F)F)c3)ccc21 [Compound 838]
–,> 200,–,< 20,< 1000,Cc1csc(NC(=O)N2CCC(C)(C)c3ccc(-c4cccc(C(F)(F)F)c4)nc32)n1 [Compound 839]
–,> 200,–,< 20,< 1000,CC1(C)CCN(C(=O)Nc2cccc(OC[C@@H](O)CO)n2)c2nc(-c3cccc(C(F)(F)F)c3)ccc21 [Compound 840]
–,> 200,–,< 20,< 1000,CC1(C)CCN(C(=O)Nc2ccnc(OC[C@H](O)CO)n2)c2nc(-c3cccc(C(F)(F)F)c3)ccc21 [Compound 845]
–,> 200,–,< 20,< 1000,CC1(C)CCN(C(=O)Nc2cncc(OCC(O)CO)n2)c2nc(-c3cccc(C(F)(F)F)c3)ccc21 (stereo not drawn) [Compound 848]
–,> 200,–,< 20,< 1000,O=C(Nc1ccncc1)N1CCc2ccc(-c3cccc(C(F)(F)F)c3)nc21 [Compound 849]
–,> 200,–,≥ 20,< 1000,O=C(Nc1ccncn1)N1CCc2ccc(-c3cccc(C(F)(F)F)c3)nc21 [Compound 850]
–,> 200,–,≥ 20,< 1000,Cc1csc(NC(=O)N2CCc3ccc(-c4cccc(C(F)(F)F)c4)nc32)n1 [Compound 851]
–,> 200,–,< 20,< 1000,O=C(Nc1cc(OCC(O)CO)ccn1)N1CCC(F)(F)c2ccc(-c3cccc(C(F)(F)F)c3)nc21 (stereo not drawn) [Compound 860]
